In patent US12161647B2, “Treating hearing loss” (Massachusetts Eye and Ear Infirmary, priority 2012, dated 2024):

Assays:
[1] = test system: deafened cochlea of Sox2-CreER; mT/mG mice; assay: In vivo lineage tracing of Sox2-positive supporting cells after round window administration; parameters: species or system mouse; settings: one month after LY411575 treatment, left ear; none in control ears
Source text: (§1) For the experiments using inner ear spheres, C57BL/6 (Jackson Labs) or Math1-nGFP reporter mouse (19) (a gift from Jane Johnson, University of Texas) of both sexes were used. To create organ of Corti explants with ablated hair cells, Mos-iCsp3 mice (20) were crossed with Pou4f3-Cre mice (6) (a gift from Douglas Vetter, Tufts University). For all in vivo experiments, we used 4-week-old Cre reporter line, mT/mG (Jackson Labs), crossed to a Sox2-CreER mouse (47) (a gift from Konrad Hochedlinger, Mass General Hospital). After genotyping, double transgenic animals were used for lineage tracing. We used young adult wild-type littermates of the mT/mG; Sox2-CreER mice to prevent strain effects in the response to noise, which are known to vary depending on background (22, 48). Mice were genotyped by PCR. All protocols were approved by the Institutional Animal Care and Use Committee of Massachusetts Eye and Ear Infirmary or the by the ethics committee of Keio University Union on Laboratory Animal Medicine, in compliance with the Public Health Service policy on humane care and use of laboratory animals.
4-week-old mice were exposed free-field, awake and unrestrained, in a small reverberant chamber (22). Acoustic trauma was produced by a 2 h exposure to an 8-16 kHz octave band noise presented at 116 dB SPL. […]

[2] = test system: organ of Corti explants from Pou4f3-Cre; Mos-iCsp3 double transgenic mice; assay: Organ of Corti explants after dimerizer-induced hair cell ablation; type: cell-based, mouse
Source text: as §1, with “All protocols were approved by the Institutional Animal Care and Use Committee of Massachusetts Eye and Ear Infirmary or the by the ethics committee of Keio University Union on Laboratory Animal Medicine, in compliance with the Public Health Service policy on humane care and use of laboratory animals.” left out
For explants, the organs of Corti were fixed for 15 min with 4% paraformaldehyde in PBS. […] Primary antibodies were detected with secondary antibodies conjugated with Alexa 488 and 647 (Molecular Probes). The samples were stained with rhodamine phalloidin (Invitrogen) for 15 min and viewed by confocal fluorescence microscopy (TCS SP5, Leica).
Cell counting for spheres was performed with MetaMorph software. The cell number was determined from DAPI- or Hoechst-positive nuclei. […] For explants, inner hair cells, outer hair cells, and supporting cells in the outer hair cell region were counted on cochlear whole mounts. […] High-power images of the full-length cochlea or cochlear explant cultures were assembled and analyzed in PhotoShop CS4 (Adobe). ImageJ software (NIH) was used to measure the total length of cochlear whole mounts and the length of individual counted segments. The total number of inner hair cells, outer hair cells, and supporting cells in the outer hair cell region was counted in each of four cochlear segments of 1200-1400 μm (apical, mid-apical, mid-basal, and basal). Density (cells per 100 μm) was then calculated for each segment. […] The number of Sox2-lineage-positive cells identified by GFP was counted by the same method. […]

C[C@H](NC(=O)[C@@H](O)c1cc(F)cc(F)c1)C(=O)N[C@@H]1C(=O)N(C)c2ccccc2-c2ccccc21 [LY411575, N-2((2S)-2-(3,5-difluorophenyl)-2-hydroxyethanoyl)-N1-((7S)-5-methyl-6-oxo-6,7-dihydro-5H-dibenzo[b,d]azepin-7-yl)-l-alaninamide]
myosin VIIa-positive cells also expressing GFP (Sox2 lineage) [1]: numerous | number of inner hair cells ([2]; any group): no significant differences | number of myosin VIIa-positive (hair) cells in the outer hair cell region ([2]; hair cell-ablated explants, cultured 3 d, p<0.05): increased | number of Sox2-positive (supporting) cells ([2]; mid-apex and mid-base of the cochlea, p<0.05): decrease
